Data published in PubChem BioAssay AID274 (DTP/NCI, 2004).
Several values for one entry are separate records, joined by “and”; a condition that tells them apart may be missing. Equal entries are not always repeated. Toxic doses and inconclusive results are not listed.

Tested on: BDF1 mice, Lewis lung carcinoma iv, survival T/C
Test: NCI In Vivo Anticancer Drug Screen. Data for tumor model Lewis Lung Carcinoma (intravenous) in B6D2F1 (BDF1) mice
Conditions: endpoint: median survival time, higher = longer survival
Method: The antitumor activity of compounds was measured in mice bearing transplantable tumors. Survival or tumor size were measured and the results are expressed as the measurement made in the treated group (T) divided by the measurement made in the vehicle treated control group (C). The tumor model used in this assay is Lewis Lung Carcinoma (intravenous) in B6D2F1 (BDF1) mice

[1] = dose: 25.0 mg/kg/injection, schedule: Q01DX009 (ip), vehicle: Klucel (hydroxypropylcellulose) (HPC)
[2] = dose: 50.0 mg/kg/injection, schedule: Q01DX009 (ip), vehicle: Klucel (hydroxypropylcellulose) (HPC)
[3] = dose: 12.5 mg/kg/injection, schedule: Q01DX009 (ip), vehicle: Klucel (hydroxypropylcellulose) (HPC)
[4] = dose: 100.0 mg/kg/injection, schedule: Q01DX009 (ip), vehicle: Klucel (hydroxypropylcellulose) (HPC)
[5] = dose: 25.0 mg/kg/injection, schedule: Q01DX009 (ip), vehicle: saline
[6] = dose: 100.0 mg/kg/injection, schedule: Q01DX009 (ip), vehicle: saline with Tween-80
[7] = dose: 400.0 mg/kg/injection, schedule: Q01DX009 (ip), vehicle: saline with Tween-80
[8] = dose: 12.5 mg/kg/injection, schedule: Q01DX009 (ip), vehicle: saline with Tween-80
[9] = dose: 25.0 mg/kg/injection, schedule: Q01DX009 (ip), vehicle: saline with Tween-80
[10] = dose: 50.0 mg/kg/injection, schedule: Q01DX009 (ip), vehicle: saline with Tween-80
[11] = dose: 200.0 mg/kg/injection, schedule: Q01DX009 (ip), vehicle: Klucel (hydroxypropylcellulose) (HPC)
[12] = dose: 400.0 mg/kg/injection, schedule: Q01DX009 (ip), vehicle: Klucel (hydroxypropylcellulose) (HPC)
[13] = dose: 50.0 mg/kg/injection, schedule: Q01DX009 (ip), vehicle: saline
[14] = dose: 100.0 mg/kg/injection, schedule: Q01DX009 (ip), vehicle: saline
[15] = dose: 200.0 mg/kg/injection, schedule: Q01DX009 (ip), vehicle: saline with Tween-80

`CN(C)/N=N/c1nc[nH]c1C(N)=O` was tested, and the T/C (dose: 16.0 mg/kg/injection, schedule: Q01DX009 (ip), vehicle: Klucel (hydroxypropylcellulose) (HPC)) was 102 % of control, the T/C [1] was 150 % of control and the T/C (dose: 32.0 mg/kg/injection, schedule: Q01DX009 (ip), vehicle: Klucel (hydroxypropylcellulose) (HPC)) was 109 % of control. The T/C [2] was 118 % of control, the T/C (dose: 128.0 mg/kg/injection, schedule: Q01DX009 (ip), vehicle: Klucel (hydroxypropylcellulose) (HPC)) was 117 % of control and the T/C (dose: 256.0 mg/kg/injection, schedule: Q01DX009 (ip), vehicle: Klucel (hydroxypropylcellulose) (HPC)) was 123 % of control.

For `CCOC(=O)C1C2OC(=O)C(C(=O)C2CN(CCCl)CCCl)C1C1CC=C(CC2=CCC(C3C4C(=O)OC(C(CN(CCCl)CCCl)C4=O)C3C(=O)OCC)CC2)CC1` (stereo unspecified), the T/C [3] was 104 % of control, the T/C [1] was 104 % of control and the T/C [2] was 102 % of control. For the same compound, the T/C [4] was 111 % of control.

In the case of `CN(N=O)C(=O)N[C@@H](C=O)[C@@H](O)[C@H](O)[C@H](O)CO`, the T/C (dose: 16.0 mg/kg/injection, schedule: Q01DX009 (ip), vehicle: other) is reported as 109 % of control, the T/C (dose: 25.0 mg/kg/injection, schedule: Q01DX009 (ip), vehicle: citric acid) is reported as 110 % of control and the T/C (dose: 32.0 mg/kg/injection, schedule: Q01DX009 (ip), vehicle: other) is reported as 98 % of control. The T/C (dose: 64.0 mg/kg/injection, schedule: Q01DX009 (ip), vehicle: other) was 112 % of control, the T/C (dose: 100.0 mg/kg/injection, schedule: Q01DX009 (ip), vehicle: citric acid) was 124 % of control and the T/C (dose: 128.0 mg/kg/injection, schedule: Q01DX009 (ip), vehicle: other) was 109 % of control.

`O=C(O)CC(=O)O.[NH-]CC[NH-].[Pt+2]` was tested, and the T/C (dose: 6.25 mg/kg/injection, schedule: Q01DX009 (ip), vehicle: saline) was 111 % of control and the T/C [5] was 156 % of control.

With `O=S(=O)(O)O.[NH-]C1CCCCC1[NH-].[Pt+2]` (stereo unspecified) the T/C (dose: 0.63 mg/kg/injection, schedule: Q01DX009 (ip), vehicle: dextrose) was 101 % of control and the T/C (dose: 1.25 mg/kg/injection, schedule: Q01DX009 (ip), vehicle: dextrose) was 110 % of control.

With `O=C(O)CC(NC(=O)CP(=O)(O)O)C(=O)O` (stereo unspecified) the T/C (dose: 490.0 mg/kg/injection, schedule: Q04DX003 (ip), vehicle: saline) was 165 % of control and the T/C (dose: 700.0 mg/kg/injection, schedule: Q04DX003 (ip), vehicle: saline) was 100 % of control.

In the case of `Cc1c2cc[n+](CCN3CCCCC3)cc2c(C)c2c1[nH]c1ccc(O)cc12`, the T/C (dose: 1.56 mg/kg/injection, schedule: Q01DX009 (ip), vehicle: suspension in saline) is reported as 105 % of control, the T/C (dose: 3.12 mg/kg/injection, schedule: Q01DX009 (ip), vehicle: suspension in saline) is reported as 100 % of control and the T/C (dose: 6.25 mg/kg/injection, schedule: Q01DX009 (ip), vehicle: suspension in saline) is reported as 109 % of control. For the same compound, the T/C (dose: 12.5 mg/kg/injection, schedule: Q01DX009 (ip), vehicle: suspension in saline) was 118 % of control and the T/C (dose: 25.0 mg/kg/injection, schedule: Q01DX009 (ip), vehicle: suspension in saline) was 122 % of control.

In the case of `c1ccc2c3c(ccc2c1)Sc1ccc2ccccc2c1N3`, the T/C [6] is reported as 111 % of control and the T/C [7] is reported as 102 % of control.

`O=S(=O)(N=N/C=C1\C=CC=CN1O)c1cccs1` was tested, and the T/C [8] was 105 % of control, the T/C [9] was 115 % of control and the T/C [10] was 100 % of control. The T/C [6] was 92 % of control.

In the case of `COc1cc(C(C)(C)C)cc(OC)c1C(O)(c1c(OC)cc(C(C)(C)C)cc1OC)c1c(OC)cc(C(C)(C)C)cc1OC`, the T/C (dose: 6.25 mg/kg/injection, schedule: Q01DX009 (ip), vehicle: saline with Tween-80) is reported as 99 % of control and 106 % of control, the T/C [8] is reported as 98 % of control and 99 % of control and the T/C [9] is reported as 97 % of control and 102 % of control. For the same compound, the T/C [10] was 99 % of control.

With `CC1CCC(n2cnc3c(Cl)ncnc32)O1` (stereo unspecified) the T/C (dose: 12.0 mg/kg/injection, schedule: Q01DX009 (ip), vehicle: Klucel (hydroxypropylcellulose) (HPC)) was 100 % of control, the T/C [1] was 109 % of control and the T/C [2] was 98 % of control. The T/C [4] was 104 % of control and the T/C [11] was 96 % of control.

`O=C1CCCCC1C(=O)C(F)(F)F` (stereo unspecified) was tested, and the T/C (dose: 50.0 mg/kg/injection, schedule: Q01DX009 (ip), vehicle: saline + Tween-80 + alcohol) was 100 % of control.

For `CN(C1=NS(=O)(=O)N=C(N(C)c2ccccc2)O1)c1ccccc1`, the T/C [3] was 97 % of control, the T/C [1] was 102 % of control and the T/C [2] was 97 % of control. For the same compound, the T/C [4] was 99 % of control, the T/C [11] was 117 % of control and the T/C [12] was 102 % of control.

With `CC1=C(/C=C/C(C)=C/C=C/C(C)=C/C(=O)O)C(C)(C)CCC1` the T/C (dose: 4.0 mg/kg/injection, schedule: Q01DX005 (ip), vehicle: saline with Tween-80) was 92 % of control, the T/C (dose: 8.0 mg/kg/injection, schedule: Q01DX005 (ip), vehicle: saline with Tween-80) was 95 % of control and the T/C (dose: 16.0 mg/kg/injection, schedule: Q01DX005 (ip), vehicle: saline with Tween-80) was 102 % of control. The T/C (dose: 32.0 mg/kg/injection, schedule: Q01DX005 (ip), vehicle: saline with Tween-80) was 91 % of control and the T/C (dose: 128.0 mg/kg/injection, schedule: Q01DX005 (ip), vehicle: saline with Tween-80) was 91 % of control.

With `O=S(=O)(O)O` the T/C (dose: 1.0 mg/kg/injection, schedule: Q01DX009 (ip), vehicle: saline with Tween-80) was 91 % of control, the T/C (dose: 2.0 mg/kg/injection, schedule: Q01DX009 (ip), vehicle: saline with Tween-80) was 86 % of control and the T/C (dose: 4.0 mg/kg/injection, schedule: Q01DX009 (ip), vehicle: saline with Tween-80) was 86 % of control. For the same compound, the T/C (dose: 8.0 mg/kg/injection, schedule: Q01DX009 (ip), vehicle: saline with Tween-80) was 97 % of control.

With `Nc1ncnc2c1cnn2Cc1ccc(Cl)cc1` the T/C [5] was 112 % of control, the T/C [13] was 98 % of control and the T/C [6] was 158 % of control. The T/C [14] was 98 % of control and the T/C [15] was 109 % of control.

In the case of `Cc1ccccc1N(CC1CO1)CC1CO1` (stereo unspecified), the T/C (dose: 12.5 mg/kg/injection, schedule: Q01DX009 (ip), vehicle: saline) is reported as 106 % of control, the T/C [5] is reported as 103 % of control and the T/C [13] is reported as 109 % of control. For the same compound, the T/C [14] was 100 % of control and the T/C (dose: 200.0 mg/kg/injection, schedule: Q01DX009 (ip), vehicle: saline) was 110 % of control.

In the case of `CCOC(=O)NC(N)=O`, the T/C [10] is reported as 97 % of control, the T/C [6] is reported as 100 % of control and the T/C [15] is reported as 122 % of control. For the same compound, the T/C [7] was 107 % of control.

In the case of `ClCC[Se](Cl)(Cl)c1ccccc1`, the T/C (dose: 0.78 mg/kg/injection, schedule: Q01DX009 (ip), vehicle: saline) is reported as 98 % of control, the T/C (dose: 1.56 mg/kg/injection, schedule: Q01DX009 (ip), vehicle: saline) is reported as 109 % of control and the T/C (dose: 3.0 mg/kg/injection, schedule: Q01DX009 (ip), vehicle: saline) is reported as 114 % of control.

In the case of `O=C(O)C1CC1.[Ag]`, the T/C (dose: 0.78 mg/kg/injection, schedule: Q01DX009 (ip), vehicle: distilled water + Tween-80) is reported as 96 % of control, the T/C (dose: 1.56 mg/kg/injection, schedule: Q01DX009 (ip), vehicle: distilled water + Tween-80) is reported as 110 % of control and the T/C (dose: 3.12 mg/kg/injection, schedule: Q01DX009 (ip), vehicle: distilled water + Tween-80) is reported as 96 % of control. For the same compound, the T/C (dose: 6.25 mg/kg/injection, schedule: Q01DX009 (ip), vehicle: distilled water + Tween-80) was 100 % of control and the T/C (dose: 12.5 mg/kg/injection, schedule: Q01DX009 (ip), vehicle: distilled water + Tween-80) was 107 % of control.

In the case of `CC1(C)OC1CS(=O)c1ccccc1` (stereo unspecified), the T/C [8] is reported as 105 % of control, the T/C [9] is reported as 99 % of control and the T/C [10] is reported as 91 % of control. The T/C [6] was 96 % of control, the T/C [15] was 95 % of control and the T/C [7] was 114 % of control.

For `O=c1oc2c(O)c(O)cc3c(=O)oc4c(O)c(O)cc1c4c23`, the T/C [3] was 102 % of control, the T/C [1] was 112 % of control and the T/C [2] was 116 % of control. For the same compound, the T/C [4] was 111 % of control and the T/C [12] was 121 % of control.

`CC1(C)CC23C4COC(=O)C2CCC1C3CC4=O` (stereo unspecified) was tested, and the T/C (dose: 1.5 mg/kg/injection, schedule: Q01DX009 (ip), vehicle: DMSO) was 109 % of control, the T/C (dose: 6.0 mg/kg/injection, schedule: Q01DX009 (ip), vehicle: DMSO) was 161 % of control and the T/C (dose: 12.0 mg/kg/injection, schedule: Q01DX009 (ip), vehicle: DMSO) was 285 % of control. For the same compound, the T/C (dose: 24.0 mg/kg/injection, schedule: Q01DX009 (ip), vehicle: DMSO) was 185 % of control and the T/C (dose: 48.0 mg/kg/injection, schedule: Q01DX009 (ip), vehicle: DMSO) was 180 % of control.
